Usually efflux ratio stands for a quotient of directional permeabilities that is used to spot active efflux. The term Papp A→B denotes the apparent permeability from the apical to the basolateral side of a cell layer.

Data set [1] deals with T1, CYP2D6 (Homo sapiens, UniProt P10635).
T1 construct: endogenous in cells; host or cells: Caco-2 cells in 96-well Transwell inserts
As to the kind of experiment: DME activity in Caco-2: CYP2D6. Type of data set: in vitro ADME. To be noted: CYP2D6/Dextromethorphan, metabolite Dextrorphan.
Protocol: (§2) For measurements of DME activities in EpiIntestinal microtissues and Caco-2 cells, both were cultured in 96-well Transwell inserts. Drugs (Table 1) were dissolved in the respective solvent at 200x concentration and diluted in a pre-warmed transport buffer. Diluted substrate solution was applied to the apical (100 µL) and basal (250 µL) compartment of the Transwell and incubated at 37 °C and 5% CO2 and 60 rpm continuous shaking. DME activities were determined by monitoring metabolite formation in basal compartment over time (0, 0.5, 1, 2, 3 and 4 h) with LC-MS/MS. […] Chromatographic separation of samples was performed on YMC Triart C18 (1.9 µm, 30 × 2 mm; YMC Europe, Dinslaken, Germany) LC analytical column. Quantification of all metabolites listed in Table 1 was achieved by the use of calibration curves for the individual metabolites with appropriate concentration ranges.
(§3) A total of 10 µL of the incubation sample were diluted with 90 µL of water containing 10–20% ACN or methanol, 0.1% formic acid and the respective internal standard. To analyze the intracellular metabolite concentration, cells on Transwell inserts were washed twice with ice-cold PBS and stored at −80 °C for 20 min. Afterwards, 150 µL 50% ACN diluted with transport buffer was added to the cells and incubated at room temperature for 30 min. […]

For data set [2], the target named is T1, CYP2D6. Put plainly: DME activity in EpiIntestinal microtissues: CYP2D6. Type of data set: in vitro ADME. To be noted: CYP2D6/Dextromethorphan, metabolite Dextrorphan.
Protocol: as §2, §3
The subject of data set [3] is SULT. As to the kind of experiment: DME activity in EpiIntestinal microtissues: SULT. It counts as in vitro ADME, human. Conditions: SULT/7-OH-Coumarin, metabolite 7-OH-Coumarin-Sulfat.
Protocol: as §2, §3
Data set [4] deals with UGT. As to the kind of experiment: DME activity in EpiIntestinal microtissues: UGT. Type of data set: in vitro ADME, human. Conditions: UGT/7-OH-Coumarin, metabolite 7-OH-Coumarin-Glucuronid.
Protocol: as §2, §3
For data set [5], the system named is SULT. As to the kind of experiment: DME activity in Caco-2: SULT. Type of data set: in vitro ADME, human. Conditions: SULT/7-OH-Coumarin, metabolite 7-OH-Coumarin-Sulfat.
Protocol: as §2, §3
In data set [6] the test system is UGT. Put plainly: DME activity in Caco-2: UGT. It counts as in vitro ADME, human. Conditions: UGT/7-OH-Coumarin, metabolite 7-OH-Coumarin-Glucuronid.
Protocol: as §2, §3
A short description of data set [7]: Intestinal first-pass availability in EpiIntestinal microtissues. Conditions: human, EpiIntestinal microtissues, 10 µM apical, GI firstpass availability, read-out: Recovery in Basal Comp. @ 24h (%). Type of data set: in vitro ADME, human. As for the experimental part: Compounds were diluted in culture media to a final concentration of 10 µM and added to the apical (donor) compartment (total volume: 100 µL for EpiIntestinal and 200 µL for Caco-2). After the incubation at 37 °C for 2, 4, 6, and 24 h, samples (50 µL) were taken from the basal (receiver) compartment (total volume: 5000 µL for EpiIntestinal and 800 µL for Caco-2). After the last timepoint, samples from the donor compartments and the cell lysates were also collected. Compound concentrations in the samples were determined by HPLC-MS/MS (Section 2.3).
GI first-pass availability of the tested compounds was expressed as fraction (%) of the total amount of a compound added to the donor compartment recovered in the receiver compartment.

The subject of data set [8] is EpiIntestinal microtissues. As to the kind of experiment: Bidirectional permeability assay in EpiIntestinal microtissues. It counts as in vitro ADME, human. As for the experimental part:
Caco-2 cells were obtained from Leibniz Institute DSMZ-German Collection of Microorganisms and Cell Cultures (Braunschweig, Germany) and cultured in DMEM containing 10% FCS, 1% NEAA, 2 mM Glutamin, 100 U/mL Penicillin and 100 µg/mL Streptomycin. […] EpiIntestinal microtissues were obtained from MatTek (Bratislav, Slovakia) and cultured according to the manufacturer’s instruction (24-well format for bidirectional permeability assays and GI firstpass availability assays and 96-well format for screening of DME activities).
Bidirectional permeability assays were performed as described previously. […] In indicated experiments, inhibitors were added to both compartments. Cells were incubated with the compounds for up to 2 h. Samples from the opposite compartment were taken at different timepoints. […] Prior to bioanalysis samples were spiked with internal standard solution and diluted with acetonitrile (ACN) for protein precipitation. Measurement was operated in multiple reaction monitoring (MRM) mode. Quantification was performed using external calibration. Apparent permeability coefficients in the apical to basal direction (Papp,AB) and in the basal to apical direction (Papp,BA) and efflux were calculated as follows Papp,AB=QAB/(C0×s×t) Papp,BA=QBA/(C0×s×t) Efflux=Papp,BA/Papp,AB where Q is the amount of compound recovered in the receiver compartment after the incubation time t, C0 the initial compound concentration given to the donor compartment, and s the surface area of the Transwell inserts. Efflux ratio is calculated as the quotient of Papp,BA to Papp,AB. […] In addition, Transepithelial electrical resistance (TEER) values are measured for each plate before the permeability assay and total recovery in donor and receiver compartments was determined for each compound. All these parameters (efflux of apafant, Papp values of the low permeable compound, TEER values, and total recovery) are used to ensure the quality of the assays.

The next data set relates to BCRP. Put plainly: Bidirectional permeability assay in Caco-2. Type of data set: in vitro ADME, human. To be noted: human, pH 7.4, with Ko-143 (3 µM), with BCRP inhibitor Ko-143 (3 µM). A general note: Passage across Caco-2 layers is used to estimate intestinal permeability.
The next data set relates to P-gp. Put plainly: Bidirectional permeability assay in Caco-2. Type of data set: in vitro ADME, human. To be noted: human, pH 7.4, with Zosuqidar (5 µM), with P-gp inhibitor Zosuqidar (5 µM).
Another data set has as its system Caco-2 cells. As to the kind of experiment: Bidirectional permeability assay in Caco-2. To be noted: with P-gp inhibitor Zosuqidar (5 µM). It counts as in vitro ADME, human.
Data set [9] is described as follows: Bidirectional permeability assay in Caco-2. It counts as in vitro ADME, human. Conditions: human, no inhibitor, mean of duplicates.
A further data set in a line: in vitro. Conditions: human, blood.
The conditions of data set [10]: human, clinical; cited from earlier work.
The test system of data set [11] is CES1 and CES2. Put plainly: CES-mediated metabolism of dabigatran etexilate in human intestinal mucosa (HIM). It counts as in vitro ADME. Conditions: human intestinal mucosa in suspension; 2 µM. As for the experimental part: (§1) CES-mediated metabolism of dabigatran etexilate was measured in cryopreserved human hepatocytes (BioIVT, West Sussex, UK) and cryopreserved human intestinal mucosa (in vitro ADMET laboratories, Columbia, MD, USA) in suspension and in Caco-2 cells and EpiIntestinal microtissues grown on Transwell inserts. Dabigatran etexilate was diluted in culture media for the respective cells or tissues. The final concentrations of dabigatran etexilate were selected in an earlier experiment to ensure reasonable turnover of the compound within the incubation time: 2 µM for hepatocytes and intestinal mucosa, 10 µM for Caco-2 and EpiIntestinal microtissues. In the experiments with Transwell inserts, dabigatran etexilate was given to the apical compartments, metabolites were measured in the basal (receiver) compartments. Concentrations of the metabolites were determined by HPLC-MS/MS (Section 2.3).

In data set [12] the test system is CES1 and CES2. As to the kind of experiment: CES-mediated metabolism of dabigatran etexilate in human hepatocytes (huHEP). It counts as in vitro ADME. Conditions: human hepatocytes in suspension; 2 µM. As for the experimental part: as §1
For data set [13], the system named is CES1 and CES2. As to the kind of experiment: CES-mediated metabolism of dabigatran etexilate in EpiIntestinal microtissues. To be noted: EpiIntestinal on Transwell; 10 µM apical; basal compartment. It counts as in vitro ADME, human. As for the experimental part: as §1
For data set [14], the system named is CES1 and CES2. As to the kind of experiment: CES-mediated metabolism of dabigatran etexilate in Caco-2 cells. It counts as in vitro ADME, human. Conditions: Caco-2 on Transwell; 10 µM apical; basal compartment. As for the experimental part:
as §1

The mark [15] stands for this setting: with BCRP inhibitor Ko-143 (3 µM).
[16] abbreviates: with P-gp inhibitor Zosuqidar (5 µM).

T1 sequence (P10635 whole entry): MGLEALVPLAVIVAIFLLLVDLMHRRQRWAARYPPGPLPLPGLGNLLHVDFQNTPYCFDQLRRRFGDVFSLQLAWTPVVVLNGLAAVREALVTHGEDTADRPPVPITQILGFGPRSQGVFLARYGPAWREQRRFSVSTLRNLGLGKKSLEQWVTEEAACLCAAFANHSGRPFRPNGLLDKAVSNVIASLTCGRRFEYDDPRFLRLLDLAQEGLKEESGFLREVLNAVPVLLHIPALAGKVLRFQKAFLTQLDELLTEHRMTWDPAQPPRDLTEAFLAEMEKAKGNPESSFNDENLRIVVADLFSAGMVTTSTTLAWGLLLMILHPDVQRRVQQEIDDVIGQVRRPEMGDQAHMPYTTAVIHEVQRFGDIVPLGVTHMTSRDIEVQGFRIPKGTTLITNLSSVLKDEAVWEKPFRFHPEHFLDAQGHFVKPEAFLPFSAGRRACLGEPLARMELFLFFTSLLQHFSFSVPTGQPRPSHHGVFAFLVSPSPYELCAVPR
Description for in vitro: Blood CLb can be converted from plasma clearance CLp with the blood-to-plasma ratio RB: CLb=CLp/RB

For `COc1ccc2c(c1)[C@]13CCCC[C@@H]1[C@H](C2)N(C)CC3` [Dextromethorphan], the “Intracellular Metabolite (% of Total)” value on CYP2D6 [1] and at CYP2D6 [2] was “BLQ” throughout.
Regarding `O=c1ccc2ccc(O)cc2o1` [7-OH-Coumarin], the “Intracellular Metabolite (% of Total)” value in the data set on SULT [3] was 3.4 % of Total; in the data set on UGT [4], 10.0 % of Total; in the data set with SULT [5], “BLQ”; in the data set on UGT [6], 5.5 % of Total.
In the case of `CC(C)c1nc(N(C)S(C)(=O)=O)nc(-c2ccc(F)cc2)c1/C=C/[C@@H](O)C[C@@H](O)CC(=O)O` [Rosuvastatin], the recovery at 24 h, 10 µM in data set [7] was 30%. Moreover, the Efflux was found to be 100.0 in data set [8] (Papp,BA/Papp,AB, no inhibitor, mean of triplicates); 3.1 in data set [8] (setting [15]); 25 in data set [8] (setting [16]). The PappAB is given as 2.6 10^−6 cm/s in [8] (setting [15]), 0.9 10^−6 cm/s in [8] (setting [16]) and 0.3 10^−6 cm/s in the data set with Caco-2 cells. In addition, the efflux ratio at 10 µM with BCRP stood at 5.5; in the data set on P-gp, 19; in [9] (pH 7.4, Papp,BA/Papp,AB), 21. Besides, the apical-to-basolateral permeability (Papp A→B) at 10 µM in data set [9] (pH 7.4, 10 µM) was 0.3 ×10⁻⁶ cm/s. Also, the blood plasma ratio in “in vitro” was found to be 0.75. In [10], the “F (total oral availability)” value was 0.2 [8]. Moreover, in data set [10], the “fe (fraction of renal excretion)” value is 0.3 [23].
As to `CCCCCCOC(=O)NC(=N)c1ccc(NCc2nc3cc(C(=O)N(CCC(=O)OCC)c4ccccn4)ccc3n2C)cc1` [dabigatran etexilate], the “Main metabolite of dabigatran etexilate” value is reported as “BIBR 951” in the data set on CES1 and CES2 [11]; “BIBR 1087” with CES1 and CES2 [12]; “BIBR 953” in the data set with CES1 and CES2 [13]; “BIBR 1087” in the data set on CES1 and CES2 [14].

(Values after publication PMC7284918, “In-Depth Characterization of EpiIntestinal Microtissue as a Model for Intestinal Drug Absorption and Metabolism in Human” (Pharmaceutics, 2020).)
